In this series the test system is HeLa cells. The series can be described thus: Annexin V-FITC / PI flow cytometry (FACS). Particulars: 50 μg/mL, 16 hours. Type of series: cell-based. The protocol: In addition, analysis was performed using FACS (BD Accuri™, BD Biosciences) to evaluate the biocompatibility of FND@mPDA-PEG. Specifically, HeLa cells were incubated with 50 μg/mL of FND, FND@mPDA-PEG, or doxorubicin for the control experiment at 37° C. for 16 hours and washed with PBS. Cells (1×10^5 cells/sample) were suspended in 100 μL of 1× binding buffer and stained with 5 μL of Annexin V-FITC and 5 μL of PI. The cells were gently vortexed and incubated at room temperature for 15 minutes in the dark. 400 μL of 1× binding buffer was added to each tube and then analyzed by flow cytometry. 10,000 or more events were collected and the data were analyzed using FlowJo™ version 10.7 software.
On the technique in general: In flow cytometry, cells or beads pass a laser one at a time.

From patent US20250255990A1, “FLUORESCENT NANODIAMOND COATED WITH POROUS POLYDOPAMINE, AND USE THEREOF” (KOREA RESEARCH INSTITUTE OF STANDARDS AND SCIENCE, priority 2022, published 2025) come the findings set out here.

In the case of `COc1cccc2c1C(=O)c1c(O)c3c(c(O)c1C2=O)C[C@@](O)(C(=O)CO)C[C@@H]3O[C@H]1C[C@H](N)[C@H](O)[C@H](C)O1` [doxorubicin], the “apoptosis / cell survival” value is listed as “induced apoptosis of HeLa cells”.
